Results published in ChEMBL document CHEMBL3885861, “Open TG-GATES”.

Species on record: Rattus norvegicus
Assay: Open TG-GATES - Regimen: Single
Assay type: toxicity, organism-based, Sprague-Dawley
Parameters: regimen Single, gender Male, age 6 weeks
Settings: in vivo, po, 15 mg/kg, route gavage, dose level Low; for APTT / Bas / Eos / Fbg / Hb / Ht / Lym / MCH / MCHC / MCV / Mono / Neu / PT / Plat / RBC / Ret / WBC: tissue Blood; for KIDNEY_L / KIDNEY_R / KIDNEY_TOTAL: tissue Kidney; for LIVER: tissue Liver; for A/G / ALP / ALT / AST / BUN / CRE / Ca / Cl / DBIL / GLC / IP / K / LDH / Na / PL / RALB / TBIL / TC / TG / TP / gamma-GTP: tissue Plasma

CN(C)CCC=C1c2ccccc2CCc2ccccc21 [AMITRIPTYLINE]
TERMINAL_BW (3 h): 194.5 g
APTT (3 h): 16.2 s
Bas (3 h): 0%
Eos (3 h): 1%
Fbg (3 h): 267.4 mg/dL
Hb (3 h): 12.8 g/dL
Ht (3 h): 39.3%
Lym (3 h): 73%
MCH (3 h): 21.2 pg
MCHC (3 h): 32.6%
MCV (3 h): 65 fL
Mono (3 h): 3%
Neu (3 h): 22.2%
PT (3 h): 16.2 s
Plat (3 h): 114.1 x10_4/uL
RBC (3 h): 604.8 x10_4/ul
Ret (3 h): 8.7%
WBC (3 h): 91.4 x10_2/uL
KIDNEY_L (3 h): 0.8 g
KIDNEY_R (3 h): 0.8 g
KIDNEY_TOTAL (3 h): 1.6 g
LIVER (3 h): 8.5 g
A/G (3 h): 0.8
ALP (3 h): 1536.8 IU/L
ALT (3 h): 54.2 IU/L
AST (3 h): 74.4 IU/L
BUN (3 h): 10 mg/dL
CRE (3 h): 0.2 mg/dL
Ca (3 h): 11.1 mg/dL
Cl (3 h): 106.2 meq/L
DBIL (3 h): 0.01 mg/dL
GLC (3 h): 181.6 mg/dL
IP (3 h): 8.8 mg/dL
K (3 h): 4.3 meq/L
LDH (3 h): 83.8 IU/L
Na (3 h): 143 meq/L
PL (3 h): 142 mg/dL
RALB (3 h): 2.5 g/dL
TBIL (3 h): 0.058 mg/dL
TC (3 h): 80.2 mg/dL
TG (3 h): 52 mg/dL
TP (3 h): 5.4 g/dL
gamma-GTP (3 h): 1 IU/L
TERMINAL_BW (6 h): 191.5 g
APTT (6 h): 16 s
Bas (6 h): 0%
Eos (6 h): 1%
Fbg (6 h): 277.4 mg/dL
Hb (6 h): 13 g/dL
Ht (6 h): 39.9%
Lym (6 h): 77.4%
MCH (6 h): 21.1 pg
MCHC (6 h): 32.6%
MCV (6 h): 64.6 fL
Mono (6 h): 2.6%
Neu (6 h): 18.4%
PT (6 h): 15.9 s
Plat (6 h): 120 x10_4/uL
RBC (6 h): 617.8 x10_4/ul
Ret (6 h): 9.4%
WBC (6 h): 75 x10_2/uL
KIDNEY_L (6 h): 0.8 g
KIDNEY_R (6 h): 0.8 g
KIDNEY_TOTAL (6 h): 1.6 g
LIVER (6 h): 7.8 g
A/G (6 h): 0.8
ALP (6 h): 1444.2 IU/L
ALT (6 h): 46.4 IU/L
AST (6 h): 77.6 IU/L
BUN (6 h): 8.8 mg/dL
CRE (6 h): 0.2 mg/dL
Ca (6 h): 10.6 mg/dL
Cl (6 h): 106.6 meq/L
DBIL (6 h): 0.014 mg/dL
GLC (6 h): 175.8 mg/dL
IP (6 h): 9.2 mg/dL
K (6 h): 4.2 meq/L
LDH (6 h): 58.4 IU/L
Na (6 h): 143 meq/L
PL (6 h): 144.4 mg/dL
RALB (6 h): 2.4 g/dL
TBIL (6 h): 0.07 mg/dL
TC (6 h): 84.4 mg/dL
TG (6 h): 43.8 mg/dL
TP (6 h): 5.3 g/dL
gamma-GTP (6 h): 1 IU/L
TERMINAL_BW (9 h): 192 g
APTT (9 h): 16.6 s
Bas (9 h): 0%
Eos (9 h): 0.8%
Fbg (9 h): 262.6 mg/dL
Hb (9 h): 12.8 g/dL
Ht (9 h): 39.3%
Lym (9 h): 67.4%
MCH (9 h): 21.5 pg
MCHC (9 h): 32.6%
MCV (9 h): 65.8 fL
Mono (9 h): 2.4%
Neu (9 h): 29%
PT (9 h): 15.7 s
Plat (9 h): 117.7 x10_4/uL
RBC (9 h): 597 x10_4/ul
Ret (9 h): 9.3%
WBC (9 h): 87.8 x10_2/uL
KIDNEY_L (9 h): 0.9 g
KIDNEY_R (9 h): 0.9 g
KIDNEY_TOTAL (9 h): 1.7 g
LIVER (9 h): 7.4 g
A/G (9 h): 0.9
ALP (9 h): 1309.6 IU/L
ALT (9 h): 44.6 IU/L
AST (9 h): 71.2 IU/L
BUN (9 h): 8.4 mg/dL
CRE (9 h): 0.2 mg/dL
Ca (9 h): 10.7 mg/dL
Cl (9 h): 106.6 meq/L
DBIL (9 h): 0.006 mg/dL
GLC (9 h): 165.2 mg/dL
IP (9 h): 10.4 mg/dL
K (9 h): 3.9 meq/L
LDH (9 h): 69.2 IU/L
Na (9 h): 142.8 meq/L
PL (9 h): 140.4 mg/dL
RALB (9 h): 2.5 g/dL
TBIL (9 h): 0.062 mg/dL
TC (9 h): 78.6 mg/dL
TG (9 h): 33.2 mg/dL
TP (9 h): 5.4 g/dL
gamma-GTP (9 h): 1 IU/L
TERMINAL_BW (24 h): 206.4 g
APTT (24 h): 16 s
Bas (24 h): 0%
Eos (24 h): 1%
Fbg (24 h): 259.2 mg/dL
Hb (24 h): 12.8 g/dL
Ht (24 h): 38.8%
Lym (24 h): 77.8%
MCH (24 h): 21.6 pg
MCHC (24 h): 32.9%
MCV (24 h): 65.5 fL
Mono (24 h): 3%
Neu (24 h): 17.4%
PT (24 h): 16.4 s
Plat (24 h): 112.7 x10_4/uL
RBC (24 h): 592.4 x10_4/ul
Ret (24 h): 8.1%
WBC (24 h): 89.3 x10_2/uL
KIDNEY_L (24 h): 0.9 g
KIDNEY_R (24 h): 0.9 g
KIDNEY_TOTAL (24 h): 1.8 g
LIVER (24 h): 9.4 g
A/G (24 h): 0.8
ALP (24 h): 1812.6 IU/L
ALT (24 h): 52.4 IU/L
AST (24 h): 78.6 IU/L
BUN (24 h): 14 mg/dL
CRE (24 h): 0.2 mg/dL
Ca (24 h): 10.9 mg/dL
Cl (24 h): 107 meq/L
DBIL (24 h): 0.018 mg/dL
GLC (24 h): 179.2 mg/dL
IP (24 h): 7.3 mg/dL
K (24 h): 4.2 meq/L
LDH (24 h): 74.2 IU/L
Na (24 h): 143 meq/L
PL (24 h): 146.8 mg/dL
RALB (24 h): 2.6 g/dL
TBIL (24 h): 0.056 mg/dL
TC (24 h): 77.2 mg/dL
TG (24 h): 82.2 mg/dL
TP (24 h): 5.6 g/dL
gamma-GTP (24 h): 1 IU/L
